Source: patent US20240082463A1, “COATED MEDICAL PRODUCT” (HEMOTEQ AG, priority 2020, published 2024)

What was measured:
[1] = Uniformity of coating and recovery rate of active agent on coated balloon catheters
Source text: Balloon catheters 4×40 mm were coated with a 2% PTX suspension containing trioctanoylglycerol (20 wt % based on PTX) using a droplet dosing technique in a microdosing method such as the pipetting method, or droplet dragging method. […] The studies on the recovery rate of active agent on balloon catheters divided into equally sized segments confirm the uniformity of the coating and thus the success in using a crystal suspension as well as a 100% recovery rate
Balloon catheters 4×40 mm were each coated with a 2% PTX suspension containing tridodecanoylglycerol or tritetradecanoylglycerol (20 wt % based on PTX) using a drop dosing technique in a micro dosing method such as the pipetting method or drop dragging method.
For this purpose, the coated weighed balloon is fixed and inflated. The balloon is then cut with a scalpel into pieces of as equal size as possible, e.g. a 40 mm long balloon into 4 pieces, a 120 mm long balloon can be divided into 6 pieces. First, cut the balloon in half lengthwise and measure the layer thickness with a micrometer. Then the balloon is divided and the pieces are weighed and also the layer thicknesses are measured with the micrometer.
The coatings are each dissolved in a defined amount of acetone and the amount of active agent is determined via HPLC. The results are compared with each other, taking into account the balloon section areas.

[2] = Preparation and stability of crystal suspensions of microcrystalline paclitaxel with solutions of different tri-O-acylglycerols; conditions: for microcrystals intact in SEM images: SEM 200× and 1000×; for microcrystals of paclitaxel dissolve directly in the solution: directly after combining, room temperature; for paclitaxel microcrystals on temperature increase: temperature increased (50° C.)
Source text: In the first step, solutions of tri-O-acylglycerols were first prepared in a solvent mixture. Subsequently, the solutions were combined with microcrystals of paclitaxel to investigate which tri-O-acylglycerols could be used to obtain stable crystal suspensions. […] For the preparation of the solutions, an ethyl acetate/heptane solvent mixture was used here as an example.
To prepare the solutions, the respective tri-O-acylglycerol was first dissolved in a polar organic solvent and then a non-polar solvent was added.
To prepare the solutions, 770 mg of the respective tri-O-acylglycerol were dissolved in 14 g ethyl acetate (15.6 mL). Then, 57.4 g of n-heptane (84.4 mL) was added.
Subsequently, homogenization and filtration were performed. The total volume of the solvent mixture is 100 mL.
To a precisely weighed amount of dry microcrystals of the previously prepared paclitaxel, a defined amount of the solutions containing tri-O-acylglycerol and optionally antioxidant is carefully added.
To check whether crystal suspension can be prepared, to each 200 mg of paclitaxel in the form of microcrystals were carefully added 10 mL of one of the solutions 1a) to 1j) at room temperature. Six mixtures of 10 mL of solution for each solution were prepared. After combining, it was tested whether the microcrystals of paclitaxel dissolved directly in the solutions.
To evaluate the crystal size, particle size distribution (i.e., crystal size distribution), and shape of the crystals, a sample was taken with a Pasteur pipette in each case and a drop was placed on the slide of the SEM sample plate. SEM images were taken at 200× and 1000× magnification for evaluation.
To evaluate the crystal size, particle size distribution (i.e., crystal size distribution), and shape of the crystals, one sample was taken from each using a Pasteur pipette and one drop was placed on the foil of the SEM sample plate. An additional sample was taken from the sediment and one drop was placed on the slide of the SEM sample plate. SEM images were taken at 200× and 1000× magnification for evaluation. SEM images were taken at 200 and 1000× magnification for evaluation.
To prepare the solutions, 770 mg of the respective tri-O-acylglycerol were dissolved in 14 g ethyl acetate (15.6 mL). Then, 57.4 g of n-heptane (84.4 mL) was added. Subsequently, homogenization and filtration were performed. The total volume of the solvent mixture is 100 mL.
Three mixtures of 10 mL of solution for each solution were prepared. After combining, it was tested whether the microcrystals dissolved directly in these solutions.

[3] = Crystal suspensions of microcrystalline paclitaxel with different proportions of tri-O-acylglycerol; format: physicochemical; conditions: tri-O-acylglycerol:paclitaxel 20:80, after 100 h
Experimental: For this purpose, further investigation was carried out using solutions of trioctanoylglycerol or tridecanoylglycerol with different proportions of tri-O-acylglycerol to find out the optimum mass ratio of tri-O-acylglycerol to microcrystalline paclitaxel. To prepare the solutions, the appropriate amount of each tri-O-acylglycerol was dissolved in 14 g ethyl acetate (15.6 mL). […] Subsequently, homogenization and filtration were performed.

[4] = cited from earlier work
[5] = Crystal suspensions of microcrystalline paclitaxel in different solvent mixtures; format: physicochemical; design: key: +++: good; +/−: average; −−−: poor; conditions: with trioctanoylglycerol
Experimental: To prepare the solutions, 770 mg of trioctanoylglycerol was dissolved in the polar solvent. Then the nonpolar solvent was added. It was then homogenized and filtered.
To test whether crystal suspension could be prepared, 10 mL of each of the solutions was carefully added to 200 mg of paclitaxelin the form of microcrystals at room temperature. After combining, it was tested whether stable crystal suspensions were obtained.

[6] = 100 h and temperature elevation to 50° C.
[7] = after 24-48 hours and temperature elevation to 50° C.

CCCCCCCC(=O)OCC(COC(=O)CCCCCCC)OC(=O)CCCCCCC [trioctanoylglycerol]
stability and flexibility of coating [1]: particularly stable and flexible coating | stability of crystal suspension [2, 6]: remained stable | stability of crystal suspension at ratio 20:80 [3]: excellent stable | solubility in water [4]: practically insoluble

CCCCCCCCCC(=O)OCC(COC(=O)CCCCCCCCC)OC(=O)CCCCCCCCC [tridecanoylglycerol]
stability and flexibility of coating [1]: particularly stable and flexible coating | stability of crystal suspension [2, 6]: remained stable | stability of crystal suspension at ratio 20:80 [3]: excellent stable | solubility in water [4]: practically insoluble

CC(=O)O[C@H]1C(=O)[C@@]2(C)[C@H]([C@H](OC(=O)c3ccccc3)[C@]3(O)C[C@H](OC(=O)[C@H](O)[C@@H](NC(=O)c4ccccc4)c4ccccc4)C(C)=C1C3(C)C)[C@]1(OC(C)=O)CO[C@@H]1C[C@@H]2O [paclitaxel, (2α,4α,5β,7β,10β,13α)-4,10-Bis(acetyloxy)-13-{[(2R,3S)-3-(benzoylamino)-2-hydroxy-3-phenylpropanoyl]oxy}-1,7-dihydroxy-9-oxo-5,20-epoxytax-11-en-2-yl-benzoat]
Crystal suspension ([5]; Acetone/Cyclohexane 10:90 (v/v polar/non-polar)): +++ | Crystal suspension ([5]; Acetone/Cyclohexane 50:50 (v/v polar/non-polar)): −−− | Crystal suspension ([5]; Acetone/Cyclohexane 60:40 (v/v polar/non-polar)): −−− | Crystal suspension ([5]; Acetone/Heptane 10:90 (v/v polar/non-polar)): +++ | Crystal suspension ([5]; Acetone/Heptane 60:40 (v/v polar/non-polar)): −−− | Crystal suspension ([5]; Acetone/Hexane 10:90 (v/v polar/non-polar)): +++ | Crystal suspension ([5]; Acetone/Hexane 50:50 (v/v polar/non-polar)): −−− | Crystal suspension ([5]; Acetone/Hexane 60:40 (v/v polar/non-polar)): −−− | Crystal suspension ([5]; Ethanol/Cyclohexane 10:90 (v/v polar/non-polar)): +++ | Crystal suspension ([5]; Ethanol/Cyclohexane 60:40 (v/v polar/non-polar)): −−− | Crystal suspension ([5]; Ethanol/Heptane 10:90 (v/v polar/non-polar)): +++ | Crystal suspension ([5]; Ethanol/Heptane 60:40 (v/v polar/non-polar)): −−− | Crystal suspension ([5]; Ethanol/Hexane 10:90 (v/v polar/non-polar)): +++ | Crystal suspension ([5]; Ethanol/Hexane 60:40 (v/v polar/non-polar)): −−− | Crystal suspension ([5]; Ethyl acetate/Cyclohexane 10:90 (v/v polar/non-polar)): +++ | Crystal suspension ([5]; Ethyl acetate/Cyclohexane 30:70 (v/v polar/non-polar)): +++ | Crystal suspension ([5]; Ethyl acetate/Cyclohexane 40:60 (v/v polar/non-polar)): +++ | Crystal suspension ([5]; Ethyl acetate/Cyclohexane 60:40 (v/v polar/non-polar)): +/− | Crystal suspension ([5]; Ethyl acetate/Heptane 10:90 (v/v polar/non-polar)): +++ | Crystal suspension ([5]; Ethyl acetate/Heptane 30:70 (v/v polar/non-polar)): +++ | Crystal suspension ([5]; Ethyl acetate/Heptane 40:60 (v/v polar/non-polar)): +++ | Crystal suspension ([5]; Ethyl acetate/Heptane 60:40 (v/v polar/non-polar)): +/− | Crystal suspension ([5]; Ethyl acetate/Hexane 10:90 (v/v polar/non-polar)): +++ | Crystal suspension ([5]; Ethyl acetate/Hexane 30:70 (v/v polar/non-polar)): +++ | Crystal suspension ([5]; Ethyl acetate/Hexane 40:60 (v/v polar/non-polar)): +++ | Crystal suspension ([5]; Ethyl acetate/Hexane 60:40 (v/v polar/non-polar)): +/− | Crystal suspension ([5]; iso-propanol/Cyclohexane 10:90 (v/v polar/non-polar)): +++ | Crystal suspension ([5]; iso-propanol/Cyclohexane 50:50 (v/v polar/non-polar)): −−− | Crystal suspension ([5]; iso-propanol/Cyclohexane 60:40 (v/v polar/non-polar)): −−− | Crystal suspension ([5]; iso-propanol/Heptane 10:90 (v/v polar/non-polar)): +++ | Crystal suspension ([5]; iso-propanol/Heptane 50:50 (v/v polar/non-polar)): −−− | Crystal suspension ([5]; iso-propanol/Heptane 60:40 (v/v polar/non-polar)): −−− | Crystal suspension ([5]; iso-propanol/Hexane 10:90 (v/v polar/non-polar)): +++ | Crystal suspension ([5]; iso-propanol/Hexane 50:50 (v/v polar/non-polar)): −−− | Crystal suspension ([5]; iso-propanol/Hexane 60:40 (v/v polar/non-polar)): −−−

CCCCCCCCCCC(=O)OCC(COC(=O)CCCCCCCCCC)OC(=O)CCCCCCCCCC [triundecanoylglycerol, 1,3-bis(undecanoyloxy)propan-2-yl-undecanoate]
sedimentation of the microcrystals [2]: no sedimentation | microcrystals intact in SEM images [2]: remained intact | stability of crystal suspension [2, 7]: remained stable | solubility in water [4]: practically insoluble

CCCCCC(=O)OCC(COC(=O)CCCCC)OC(=O)CCCCC [trihexanoylglycerol]
state of paclitaxel microcrystals in the suspension after 100 h [2]: not as uniformly present | microcrystals of paclitaxel dissolve directly in the solution [2]: did not dissolve directly | paclitaxel microcrystals on temperature increase [2]: dissolved rapidly

CCCCCCCCCCCC(=O)OCC(COC(=O)CCCCCCCCCCC)OC(=O)CCCCCCCCCCC [tridodecanoylglycerol]
sedimentation of the microcrystals [2]: sedimentation of the crystals occurred | state of paclitaxel microcrystals in the suspension after 100 h [2]: did not dissolve completely | microcrystals intact in SEM images [2]: did not remain intact | microcrystals of paclitaxel dissolve directly in the solution [2]: did not dissolve directly

CCCCCCC(=O)OCC(COC(=O)CCCCCC)OC(=O)CCCCCC [triheptanoylglycerol]
state of paclitaxel microcrystals in the suspension after 100 h [2]: partially dissolved | microcrystals intact in SEM images [2]: did not remain intact | microcrystals of paclitaxel dissolve directly in the solution [2]: did not dissolve directly | paclitaxel microcrystals on temperature increase [2]: dissolved

CCCCCCCCC(=O)OCC(COC(=O)CCCCCCCC)OC(=O)CCCCCCCC [trinonanoylglycerol]
stability of crystal suspension [2, 7]: remained stable | solubility in water [4]: practically insoluble

CCCCCCCCCCCCCC(=O)OCC(COC(=O)CCCCCCCCCCCCC)OC(=O)CCCCCCCCCCCCC [tritetradecanoylglycerol]
sedimentation of the microcrystals [2]: sedimentation of the crystals occurred | state of paclitaxel microcrystals in the suspension after 100 h [2]: did not dissolve completely | microcrystals intact in SEM images [2]: did not remain intact | microcrystals of paclitaxel dissolve directly in the solution [2]: did not dissolve directly
